Source: patent US12297285B2 (Orna Therapeutics, Inc., priority 2022, dated 2025)

What was measured:
Test in all cases: IRES screening, Gaussia luciferase from LNP-oRNA (Table 27)
Details in all cases: Gaussia luciferase luminescence in supernatant 48 hours after LNP-oRNA transfection, normalized to control (caprine kobuvirus IRES)
[1] = tested on: primary human skeletal myotubes
[2] = tested on: primary human hepatocytes
[3] = tested on: activated primary human T cells

| SMILES | [Mod] Fold Change Myo [1] [Fold Change] | [Mod] PHH Fold Change [2] [Fold Change] | [Mod] T Fold Change [3] [Fold Change] |
| --- | --- | --- | --- |
| CCCCCCCCC(CCCCCC)OCCOC(=O)CCN(CCCn1ccnc1C)CCC(=O)OCCOC(CCCCCC)CCCCCCCC (stereo not drawn) [Lipid 10a-143] | 0.03901 | 0.4209 | 0.03265 |
| CCCCCCCCCN(CCn1ccnc1C)C(CCCCCCCCC(=O)OCC(CCCC)CCCCCC)CCCCCCCCC(=O)OCC(CCCC)CCCCCC (stereo not drawn) [Lipid 10a-145] | 0.03927 | 0.6359 | 0.0263 |
| CCCCCCCCCN(CCn1ccnc1)C(CCCCCCCCC(=O)OCC(CCCC)CCCCCC)CCCCCCCCC(=O)OCC(CCCC)CCCCCC (stereo not drawn) [Lipid 10a-146] | 0.04323 | 0.5873 | 0.03465 |
| CCCCCCCCCN(CCCCn1ccnc1C)C(CCCCCCCCC(=O)OCC(CCCC)CCCCCC)CCCCCCCCC(=O)OCC(CCCC)CCCCCC (stereo not drawn) [Lipid 10a-147] | 0.04264 | 0.5594 | 0.03662 |
| CCCCCCCCCN(CCCCn1ccnc1)C(CCCCCCCCC(=O)OCC(CCCC)CCCCCC)CCCCCCCCC(=O)OCC(CCCC)CCCCCC (stereo not drawn) [Lipid 10a-148] | 0.03913 | 0.7368 | 0.02909 |
| CCCCCCCCC(CCCCCC)C(=O)OCCCCCCN(CCCn1ccnc1C)CC(O)CCCCOC(=O)C(CCCCCC)CCCCCCCC (stereo not drawn) [Lipid 10a-149] | 0.03919 | 0.7118 | 0.02893 |
| CCCCCCCCCCCCC(O)CN(CCCCCCCC(=O)OC(CCCCCCCC)CCCCCCCC)CCCn1ccnc1C (stereo not drawn) [Lipid 10a-150] | 0.03864 | 0.5147 | 0.02705 |
